Assay results reported in patent US20250129101A1, “Compound, Pharmaceutical Composition Comprising the Same and Method for Treating Cancer Using the Same” (NATIONAL TSING HUA UNIVERSITY, priority 2023, published 2025).
Read-outs that look alike come from different tables or passages of the source. Each block holds one compound with its values, some of them ahead of it.

Columns and labels:
KIF2C = molecular target: T1, KIF2C (Homo sapiens, UniProt Q99661); assay: In vitro validation: KIF2C kinesin activity, malachite green-based phosphate colorimetric assay; assay type: biochemical
T1 construct: KIF2C (216-598 a.a.); 6xHis (C); made in house; host or cells: E. coli BL21 (DE3), pET-28a
T1 sequence (Q99661 216-598): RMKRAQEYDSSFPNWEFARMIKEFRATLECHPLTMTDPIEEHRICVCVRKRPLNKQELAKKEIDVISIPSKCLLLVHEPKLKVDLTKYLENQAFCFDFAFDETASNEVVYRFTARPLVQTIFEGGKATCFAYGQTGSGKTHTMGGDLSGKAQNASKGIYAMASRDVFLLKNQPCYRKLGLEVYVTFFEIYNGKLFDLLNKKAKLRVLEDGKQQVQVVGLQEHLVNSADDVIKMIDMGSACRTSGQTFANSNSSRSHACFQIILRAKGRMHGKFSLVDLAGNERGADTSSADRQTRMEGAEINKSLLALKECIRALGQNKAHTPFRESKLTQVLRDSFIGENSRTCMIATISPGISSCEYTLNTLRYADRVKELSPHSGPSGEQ
How it was run: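 KIF2C sN+M construct (aa 216-598, C-terminal 6×His, E. coli-expressed) ATPase activity with microtubules from porcine brain tubulin or HEK293 (293Fs) cells in BRB80 (80 mM PIPES pH 6.8, 1 mM GTP, 10% DMSO), 37° C for 2 hr. Released phosphate detected by malachite green reagent, 10 min, A650.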

MDA-MB-231 cells = assay: Cell validation: cytotoxicity in MDA-MB-231 cells (CellTiter-Glo); assay type: cell-based
How it was run: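 MDA-MB-231 cells were seeded at 2000 cells/well and exposed to compounds for the specified number of days. Medium was then replaced with a 1:1 CellTiter-Glo reagent/serum-supplemented DMEM mix for 10 min, and viability was read as luminescence, proportional to living cell number.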

[1] = test system: MDA-MB-231 R, MDA-MB-231 S, 4T1 S1, R4, and R8 cells; assay: Cell viability of indicated cell lines, DHTP or 7S9 for 72 hr; assay type: cell-based; settings: MDA-MB-231 R
Description: (§1) The cancer cells were cultured in a 96-well plate at a confluence of 1000-2000 cells/well with indicated drugs for specific days. When the time was up, the culture medium in the plate was aspirated and replaced with a prepared CellTiter-Glo reagent/DMEM mixture (1:1 mix of CellTiter-Glo reagent and serum-supplemented DMEM). After incubation for 10 min, the luminescence (proportional to the number of living cells) was measured with an ELISA plate reader to determine the cell viability.

KIF2A = molecular target: T2, KIF2A (Homo sapiens, UniProt O00139); assay: In vitro kinesin assay, KIF2A; assay type: biochemical; settings: 50 μM (FIG. 4I)
T2 construct: KIF2A (181-562 a.a.); 6xHis (C); made in house; host or cells: E. coli BL21 (DE3), pET-28a
T2 sequence (O00139 181-562): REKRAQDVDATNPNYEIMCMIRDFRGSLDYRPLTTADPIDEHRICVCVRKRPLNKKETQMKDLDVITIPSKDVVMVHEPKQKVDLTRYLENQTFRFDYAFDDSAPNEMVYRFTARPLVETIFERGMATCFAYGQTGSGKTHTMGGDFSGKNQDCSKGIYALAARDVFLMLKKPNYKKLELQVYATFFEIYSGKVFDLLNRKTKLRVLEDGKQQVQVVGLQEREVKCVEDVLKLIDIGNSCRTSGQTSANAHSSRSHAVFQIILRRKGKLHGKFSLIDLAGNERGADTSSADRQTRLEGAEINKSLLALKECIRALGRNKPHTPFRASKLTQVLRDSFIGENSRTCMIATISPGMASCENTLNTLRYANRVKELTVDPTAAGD
Description: (§2) In vitro kinesin activity was measured using malachite green-based phosphate colorimetric assay (BioVision). […] The microtubules from porcine brain tubulin (Cytoskeleton) or purified from HEK293 cells in Free-style medium (293Fs) were dissolved in the BRB80 buffer (80 mM PIPES pH 6.8, 1 mM EGTA, 1 mM MgCl2, 1 mM GTP, 1 mM DTT, and 10% DMSO) at 37° C. for 2 hr. Phosphates released from kinesin-mediated ATP hydrolysis was measured by adding 30 μL of the phosphate colorimetric reagent (BioVision), incubated for 10 min, and then measured with absorbance at 650 nm.
(§3) Constructs of sN+M regions of KIF2C (216-598 a.a.), KIF2A (181-562 a.a.) and KIF2B (171-553 a.a.) with C-terminal 6×His tag were subcloned into pET-28a vector and expressed in BL21 (DE3) E. coli cells (Novartis) cultured in Luria-Bertani medium supplemented with 50 ug/mL kanamycin at 37° C. After induction with 0.8 mM IPTG for 18 hr at 20° C., the cells were pelleted by centrifugation at 6000 rpm for 30 min at 10° C. The collected pellets were resuspended in 30 mL of buffer A (20 mM Tris-HCl pH 7.5, 500 mM NaCl, 10 mM imidazole, 1% CHAPS, and 1 mM PMSF) and next subjected to a high-pressure homogenizer (EmulsiFlex-C3) for cell lysis. After removing the cell debris by centrifugation at 13000 rpm for 30 min at 10° C., the recombinant Kinesin-13 in the supernatant was purified using nickel affinity chromatography. […]

KIF2B = molecular target: T3, KIF2B (Homo sapiens, UniProt Q8N4N8); assay: In vitro kinesin assay, KIF2B; assay type: biochemical; settings: 50 μM (FIG. 4I)
T3 construct: KIF2B (171-553 a.a.); 6xHis (C); made in house; host or cells: E. coli BL21 (DE3), pET-28a
T3 sequence (Q8N4N8 171-553): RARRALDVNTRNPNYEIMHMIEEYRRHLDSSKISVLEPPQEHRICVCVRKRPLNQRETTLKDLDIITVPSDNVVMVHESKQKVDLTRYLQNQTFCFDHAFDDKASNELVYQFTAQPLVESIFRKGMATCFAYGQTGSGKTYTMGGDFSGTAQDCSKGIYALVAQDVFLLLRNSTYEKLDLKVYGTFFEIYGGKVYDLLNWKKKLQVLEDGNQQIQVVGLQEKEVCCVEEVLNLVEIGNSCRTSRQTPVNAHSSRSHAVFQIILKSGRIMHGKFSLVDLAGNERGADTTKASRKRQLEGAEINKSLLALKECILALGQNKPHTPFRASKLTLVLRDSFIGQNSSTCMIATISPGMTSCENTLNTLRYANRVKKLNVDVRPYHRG
Description: as §2, §3

4T1 cells [2] = assay: Flow cytometry analysis of cell membrane penetration ability; assay type: cell-based, mouse; settings: 2 hr of drug treatment
Description: To quantify the cell membrane penetration ability of different DHTP analogs, 4T1 cells were collected by trypsin after 2 hr of drug treatment and then transferred into microcentrifuge tubes. 4T1 cells were then resuspended into the FACS buffer (1% FBS, 2 mM EDTA, and 0.05% NaN3 in PBS). After two times of FACS buffer rinsing, these samples were detected by flow cytometry (Cyto FLEX™ FLOW Cytometer). The KO525 (405 nm laser; 525 nm filter) channel was used to detect DHTP and 7S9.

[3] = test system: HeLa cells expressing H2B-mCherry and eGFP-tubulin; assay: Live-cell imaging of intracellular microtubule distribution; assay type: cell-based
Description: For the microtubule distribution analysis, HeLa cell line stably expressing H2B-mCherry and eGFP-tubulin (a kind gift from Anthony A. Hyman, Max-Planck-Institute for Molecular Cell Biology and Genetics, Dresden, Germany) were treated with KIF2C inhibitors (10 μM DHTP or 10 μM 7S9) during imaging. Live-cell imaging was conducted on a Nikon T1 inverted fluorescence microscope (Nikon) with a 60× oil objective (Nikon), a Prime camera (Photometrics), and 37° C., 5% CO2 heat stage (Live Cell Instrument). Microtubule morphological changes were imaged at 3-min intervals. Images were obtained using ImageJ software processed with Gaussian Blur to remove the noise.

4T1 S1 cells [4] = assay: Cell viability assay, 4T1 S1 cells; assay type: cell-based; settings: Mus musculus, 72 hr, read-out: IC50, single treatment
Description: (§4) MCF-7, MDA-MB-231, MDA-MB-468, Hs578T, 4T1, and HeLa cell lines stably expressing H2B-mCherry and eGFP-tubulin (kindly provided by Dr. Anthony A. Hyman, Max-Planck-Institute for Molecular Cell Biology and Genetics, Dresden, Germany) were cultured in high-glucose Dulbecco's Modified Eagle Medium (DMEM). SK-BR-3 cells were cultured in McCoy's Modified 5a Medium. Hs578T cells were cultured in high-glucose DMEM supplemented with an additional 0.01 mg/mL bovine insulin. […] All mentioned media were supplemented with 10% fetal bovine serum (Gibco) and 1% Penicillin/Streptomycin (Corning), and cells were incubated at 37° C. in a humidified atmosphere containing 5% CO2. HEK293 cells were cultured in HE300 medium (GMEP incorporated, Japan) and maintained in suspension culture with 125 rpm and 8% CO2.
as §1

4T1 R4 cells = assay: Cell viability assay, 4T1 R4 cells; assay type: cell-based, mouse
Description: as §4, §1

4T1 R8 cells = assay: Cell viability assay, 4T1 R8 cells; assay type: cell-based, mouse
Description: as §4, §1

MDA-MB-231 R = assay: Cell viability assay, chemoresistant MDA-MB-231 R cells; assay type: cell-based; settings: MDA-MB-231 R versus S cells, 72 hr paclitaxel
Description: as §1
(§5) The expression levels of KIF2A, KIF2B, and KIF2C in these cell lines were compared using Western blotting.

4T1 R cells = assay: Cell viability assay, chemoresistant 4T1 R cells; assay type: cell-based, mouse; settings: 4T1 R versus S cells, 72 hr paclitaxel
Description: as §1, §5

4T1 S1 cells [5] = assay: Colony formation assay, 4T1 S1 cells; assay type: cell-based, mouse; settings: 400 nM paclitaxel
Description: To assess the long-term survival of breast cancer cell lines following the treatment of KIF2C knockdown or inhibition, the cells trypsinized into single-cell suspension were homogeneously seeded in 6-well cell culture plates at a density of 5000 cells per dish, supplemented with 2× complete medium (50% 4×DMEM, 20% FBS, 2% penicillin-streptomycin, ddH2O, and 2× glutaMAX™), agarose (0.6% for bottom agar layer; 0.3% for top cell layer), ddH2O, and DMEM. After incubation for 24 hr, cells were treated with indicated drugs, such as DMSO, KIF2C inhibitors, or chemotherapy drugs, and then cultured at 37° C. incubator in an atmosphere of humidified air with 5% CO2 for a further 14-30 days. When the cell colonies grew to appropriate sizes, the culture mediums were replaced with PBS for washing. After that, the plates were stained with 10% crystal violet and analyzed using Image J.

4T1 S1 cells [6] = assay: Time-lapse imaging of mitotic progression, 4T1 S1 cells; assay type: cell-based, mouse; settings: paclitaxel (400 nM, FIG. 6D)
Description: To investigate the role of KIF2C in cell cycle progression, 4T1 cells were cultured in the 4-well chamber slide with about 50% confluence. The culture medium was replaced with a CO2-independent medium (Gibco) supplemented with 10% fetal bovine serum (Biological Industries) and 1% penicillin-streptomycin (Biowest). Then, each well of the chamber slide was treated with indicated drugs, such as DMSO, KIF2C inhibitors, or chemotherapy drugs. After that, the chamber slide was maintained in the microscope stage incubator with the supplement of humidified air with 5% CO2 at 37° C. Multiple-positional time-lapse imaging was performed using an automated Leica DM16000 inverted microscope equipped with HCX PL FL 20×/0.4 and EMCCD camera (Andor Luca R, Belfast, UK). Sequential differential interference contrast (DIC) images of cells obtained at indicated intervals were further analyzed using Metamorph software (Molecular Devices).

4T1 cells [7] = assay: In vivo tumor growth inhibition, 4T1 syngeneic model; design: species or system mouse; settings: 4T1 tumors, BALB/c mice, paclitaxel 5 mg/kg intraperitoneally, 5on/2off two cycles
Description: (§6) The mice were housed at the National Health Research Institute (NHRI) Animal Center in accordance with the Institutional Animal Care and Use Committee procedures and guidelines. The 4T1-derived cells, including 4T1, 4T1 R4, and 4T1 R8, used for implantation were harvested during log phase growth and resuspended in phosphate-buffered saline. Each mouse was injected s.c. in the right flank with 5×10^5 cells. After tumor size reached 60-100 mm 3 (D1), mice were divided into groups and received treatment with vehicle or different compounds alone or in combinations. Tumor size, in mm 3, was measured twice per week and calculated from Tumor volume=(w 2×1)/2, where w=width and 1=length in mm of the tumor. The values of tumor size were expressed as mean±SEM.

4T1 R4 = assay: In vivo tumor growth inhibition, 4T1 R4 syngeneic model; design: species or system mouse; settings: R4 tumors, BALB/c mice, paclitaxel 15 mg/kg intraperitoneally, 5on/2off two cycles
Description: as §6

[8] = 72 hr, MTA with 2 μM 7S9, read-out: IC50 (nM), Combination
[9] = Mus musculus, 72 hr, drug alone, read-out: IC50 (nM), Single
[10] = Mus musculus, read-out: Paclitaxel IC50 (nM), C4 combination, with 10 μM C4

SMILES: CC1=C(C(=O)OC(C)C)C(c2ccc(Cl)cc2)n2c(s/c(=C\c3ccc(OCC(=O)O)cc3)c2=O)=N1 (stereo not drawn) [1S0 (1), reference compound]
inhibitory effect against KIF2C (in words) (KIF2C; 50 μM (FIG. 4I)): inhibited all three members of the kinesin-13 family
inhibition of KIF2C kinesin activity (in words) (KIF2C; 100 μM (FIG. 4B)): could inhibit KIF2C kinesin activity
EC50 (KIF2C; concentration that inhibits 50% of KIF2C activity): < 10 µM
cytotoxicity on MDA-MB-231 cells (in words) (MDA-MB-231 cells; 72 hr): not cytotoxic
IC50 (MDA-MB-231 cells; Homo sapiens, cytotoxicity in MDA-MB-231 cells): > 50 µM
cytotoxicity (in words) [1]: not cytotoxic
inhibitory effect against KIF2A (in words) (KIF2A): inhibited all three members of the kinesin-13 family
inhibitory effect against KIF2B (in words) (KIF2B): inhibited all three members of the kinesin-13 family
cell penetration, fluorescence signal at 510 nm emission (in words) (4T1 cells [2]): no fluorescence signals
intracellular microtubule distribution phenotype (in words) [3]: tubulin aggregation phenotype was not detected

IC50 (4T1 S1 cells [4]): 0.062 µM
IC50 (4T1 R4 cells; [8]): 6.4 nM
IC50 (4T1 R4 cells; [9]): 1540 nM
IC50 (4T1 R4 cells; [10]): 217 nM
IC50 (4T1 R8 cells; [8]): 6.1 nM
IC50 (4T1 R8 cells; [9]): 1120 nM
IC50 (4T1 R8 cells; [10]): 157 nM
SMILES: CC(=O)O[C@H]1C(=O)[C@@]2(C)[C@H]([C@H](OC(=O)c3ccccc3)[C@]3(O)C[C@H](OC(=O)[C@H](O)[C@@H](NC(=O)c4ccccc4)c4ccccc4)C(C)=C1C3(C)C)[C@]1(OC(C)=O)CO[C@@H]1C[C@@H]2O [Paclitaxel, paclitaxel]
increase in chemoresistance (MDA-MB-231 R): 2.5 fold
increase in chemoresistance (4T1 R cells): 11.8 fold
intracellular microtubule distribution phenotype (in words) [3]: significant accumulation of bundled microtubules at the cell periphery
suppression of colony formation (4T1 S1 cells [5]): 80%
cells died in mitosis (4T1 S1 cells [6]): Approximately 40%
tumor growth inhibition (4T1 cells [7]): 31.3%
tumor growth inhibition (4T1 R4): 41.7%
